Measurements as given in ChEMBL document CHEMBL4483862, “Open-source discovery of chemical leads for next-generation chemoprotective antimalarials” (2018).

Tested on: Plasmodium berghei
Experiment: Luciferase/luciferin-expressing antifolate-resistant parasites were used to infect a culture of HepG2 cells that were pre-incubated with compounds. Infected hepatocytes emit light due to the luciferase reaction. Assay results are presented as the percent inhibition of light emission compared to control. […]
Type: functional
Conditions: sporozoite; for IC90: read-out: LUCIFERASE INFECTION ASSAY - IC90
[1] = read-out: LUCIFERASE INFECTION ASSAY - IC50

SMILES | IC50 [1] | IC90 | further results
CCC(C)N1C(=O)Cc2c1nc(N)c1c(N)nc(N3CC(C)OC(C)C3)c(C#N)c21 (centres undefined) | > 10 µM | > 10 µM | –
Cc1c(Cl)cccc1NC(=O)CNC(=O)CN1CCc2ccccc2C1 | > 10 µM | > 10 µM | –
COCC(C)n1c(C)cc(C(=O)CN2C(=O)c3ccccc3S2(=O)=O)c1C (centres undefined) | – | > 10 µM | IC50 (FFLUC_HILL_SLOPE 1.61, FFLUC_R_SQUARED 0.328, read-out: LUCIFERASE INFECTION ASSAY - IC50): > 10 µM
CCn1c(CNC(=O)C2CCN(c3ccc(C#N)cn3)CC2)nc2ccccc21 | – | > 10 µM | IC50 (PBLUC_HILL_SLOPE 0.433, PBLUC_R_SQUARED 0.506, read-out: LUCIFERASE INFECTION ASSAY - IC50): 4.94 µM
O=C1C=CC(=O)N1c1ccc(C2CCCCC2)cc1 | – | 11.3 µM | IC50 (HEPG2TOX_HILL_SLOPE 18, HEPG2TOX_R_SQUARED 0.917, PBLUC_HILL_SLOPE 2, PBLUC_R_SQUARED 0.694, read-out: LUCIFERASE INFECTION ASSAY - IC50): 3.78 µM
Fc1cccc(-c2nc3ccnc(NCc4ccccc4)c3[nH]2)c1 | – | 4.56 µM | IC50 (HEPG2TOX_HILL_SLOPE 6.86, HEPG2TOX_R_SQUARED 0.629, PBLUC_HILL_SLOPE 1.32, PBLUC_R_SQUARED 0.696, read-out: LUCIFERASE INFECTION ASSAY - IC50): 0.868 µM
COc1cccc(CNC(=S)SCC(=O)C(C)(C)C)c1 | > 10.6 µM | > 10.6 µM | –
CC(C)c1ccc(-c2cnc3sc(NCc4ccncc4)nn23)cc1 | – | > 9.44 µM | IC50 (FFLUC_HILL_SLOPE 6.11, FFLUC_R_SQUARED 0.0312, HEPG2TOX_HILL_SLOPE 0.148, HEPG2TOX_R_SQUARED 0.0475, read-out: LUCIFERASE INFECTION ASSAY - IC50): > 9.44 µM
COc1ccccc1-c1nc2c3c(C)c(C)n(-c4ccccc4OC)c3ncn2n1 | – | 7.51 µM | IC50 (HEPG2TOX_HILL_SLOPE 8.61, HEPG2TOX_R_SQUARED 0.202, PBLUC_HILL_SLOPE 3.56, PBLUC_R_SQUARED 0.654, read-out: LUCIFERASE INFECTION ASSAY - IC50): 4.05 µM
COCC/N=c1\scc(-c2ccc(OC(F)F)cc2)n1/N=C/c1ccccc1F | > 10 µM | > 10 µM | –
Cc1nnsc1C(=O)Nc1ccc(-n2nc(C(F)(F)F)cc2C(F)(F)F)cc1 | – | > 7.83 µM | IC50 (PBLUC_HILL_SLOPE 2.63, PBLUC_R_SQUARED 0.209, read-out: LUCIFERASE INFECTION ASSAY - IC50): 5.65 µM
COc1ccc(/C=C2\Oc3cc(O)cc(C)c3C2=O)c(OC)c1 | – | > 10.6 µM | IC50 (HEPG2TOX_HILL_SLOPE 7.92, HEPG2TOX_R_SQUARED 0.287, PBLUC_HILL_SLOPE 2.15, PBLUC_R_SQUARED 0.542, read-out: LUCIFERASE INFECTION ASSAY - IC50): 6.5 µM
CCCCCCn1c(SCc2cc(=O)oc3cc(C)ccc23)nnc1-c1c[nH]c2ccccc12 | – | > 10 µM | IC50 (PBLUC_HILL_SLOPE 85.8, PBLUC_R_SQUARED 0.0287, read-out: LUCIFERASE INFECTION ASSAY - IC50): 9.99 µM
CC(C)c1ccc(-c2ccc3nnc(-c4ccc(OCCCN(C)C)cc4)n3c2)cc1 | > 10 µM | > 10 µM | –
CCc1ccc(-n2nnnc2-c2cnc(N)nc2-c2ccccc2)cc1 | – | 1.61 µM | IC50 (HEPG2TOX_HILL_SLOPE 0.931, HEPG2TOX_R_SQUARED 0.943, PBLUC_HILL_SLOPE 1.76, PBLUC_R_SQUARED 0.648, read-out: LUCIFERASE INFECTION ASSAY - IC50): 0.463 µM
CC1(C)C=Cc2cc(-c3noc(-c4ccccc4)n3)ccc2O1 | – | 0.379 µM | –
CCCCNC(=O)c1c(NC(=O)c2cccc(C)c2)nc2ccccn12 | – | 6.37 µM | IC50 (HEPG2TOX_HILL_SLOPE 8.37, HEPG2TOX_R_SQUARED 0.0961, PBLUC_HILL_SLOPE 7.21, PBLUC_R_SQUARED 0.187, read-out: LUCIFERASE INFECTION ASSAY - IC50): 4.7 µM
CC(C)(C)NC(=S)Nc1cc(C(F)(F)F)c(Cl)cc1Cl | > 9.56 µM | > 9.56 µM | –

SMILES | IC50 [1] | IC90 | further results
c1ccc(CNc2nccc3[nH]c(-c4ccccc4)nc23)cc1 | – | 7.44 µM | IC50 (HEPG2TOX_HILL_SLOPE 2.3, HEPG2TOX_R_SQUARED 0.763, PBLUC_HILL_SLOPE 1.79, PBLUC_R_SQUARED 0.522, read-out: LUCIFERASE INFECTION ASSAY - IC50): 2.19 µM
O=c1[nH]c2ccccc2c(O)c1F | – | 2.92 µM | IC50 (PBLUC_HILL_SLOPE 2.84, PBLUC_R_SQUARED 0.833, read-out: LUCIFERASE INFECTION ASSAY - IC50): 1.35 µM
CN(C)c1cccc(Nc2nccn3c(-c4ccc5c(c4)OCO5)cnc23)c1 | 0.365 µM | 2.84 µM | –
COc1ccc2cc(CN(C)CC(=O)Nc3sccc3C(N)=O)ccc2c1 | – | 4.94 µM | IC50 (HEPG2TOX_HILL_SLOPE 0.237, HEPG2TOX_R_SQUARED 0.621, PBLUC_HILL_SLOPE 9.54, PBLUC_R_SQUARED 0.647, read-out: LUCIFERASE INFECTION ASSAY - IC50): 3.92 µM
COc1ccc(-c2cnc3ccc(-c4cccc(F)c4)nn23)cc1OC | – | 1.27 µM | IC50 (HEPG2TOX_HILL_SLOPE 3.03, HEPG2TOX_R_SQUARED 0.965, PBLUC_HILL_SLOPE 7.81, PBLUC_R_SQUARED 0.531, read-out: LUCIFERASE INFECTION ASSAY - IC50): 0.958 µM
COc1ccc(-c2cnc3sc(NCCCO)nn23)cc1OC | – | 7.9 µM | IC50 (PBLUC_HILL_SLOPE 3.23, PBLUC_R_SQUARED 0.708, read-out: LUCIFERASE INFECTION ASSAY - IC50): 4 µM
CCCc1c(O)nc2ccc(C)cc2c1C | – | > 15.3 µM | IC50 (HEPG2TOX_HILL_SLOPE 1.25, HEPG2TOX_R_SQUARED 0.942, PBLUC_HILL_SLOPE 1.62, PBLUC_R_SQUARED 0.0626, read-out: LUCIFERASE INFECTION ASSAY - IC50): 11.3 µM
N#C/C(=C\c1ccc(OC(=O)c2cccnc2)cc1)c1nnc2n1CCCCC2 | > 10 µM | > 10 µM | –
Cn1c(CSc2nc3ccccc3s2)nn(CN2CCCc3ncccc32)c1=S | > 10 µM | > 10 µM | –
O=C(NCCSCc1ccc(Cl)cc1Cl)c1cccs1 | – | 3.51 µM | IC50 (HEPG2TOX_HILL_SLOPE 0.0561, HEPG2TOX_R_SQUARED 0.0467, PBLUC_HILL_SLOPE 2.24, PBLUC_R_SQUARED 0.817, read-out: LUCIFERASE INFECTION ASSAY - IC50): 1.32 µM
N#CCCN(Cc1ccco1)C(=O)CSc1nc2ccccc2c(=O)n1-c1cccc(Cl)c1 | 7.35 µM | > 10 µM | –
CC(C)(C)c1ccc(C(=O)NNC(=S)Nc2ccc(Cl)cc2)cc1 | – | 8.97 µM | IC50 (PBLUC_HILL_SLOPE 14.6, PBLUC_R_SQUARED 0.46, read-out: LUCIFERASE INFECTION ASSAY - IC50): 7.71 µM
c1ccc(Oc2ccccc2-c2cnn3c(NCc4ccccn4)ccnc23)cc1 | – | > 8.39 µM | IC50 (PBLUC_HILL_SLOPE 14.9, PBLUC_R_SQUARED 0.143, read-out: LUCIFERASE INFECTION ASSAY - IC50): 8.25 µM
O=c1c2sccc2ncn1Cc1cc(-c2cccs2)on1 | > 10 µM | > 10 µM | –
FC(F)(F)Oc1cccc(-c2nc3ccnc(NCCc4ccncc4)c3[nH]2)c1 | 3.37 µM | > 10 µM | –
FC(F)(F)Oc1cccc(-c2nc3ccnc(Nc4ccccc4)c3[nH]2)c1 | – | > 10 µM | IC50 (HEPG2TOX_HILL_SLOPE 7.94, HEPG2TOX_R_SQUARED 0.491, PBLUC_HILL_SLOPE 12.6, PBLUC_R_SQUARED 0.533, read-out: LUCIFERASE INFECTION ASSAY - IC50): 8.84 µM
O=C(O)C1C2C=CC(O2)C1C(=O)Nc1ccc(OC(F)(F)F)cc1 (centres undefined) | – | > 9.61 µM | IC50 (PBLUC_HILL_SLOPE 1.22, PBLUC_R_SQUARED 0.106, read-out: LUCIFERASE INFECTION ASSAY - IC50): > 9.61 µM
